Data as given in PubChem BioAssay AID1963431 (Molecular Pharmacology Branch, DTP, NCI, 2024).

System: Rh18 complex spheroid viability, percent test/control
Assay: Anticancer human tumor Rh18 cell line growth inhibition [Asc];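 further: spheroids exposed to compound for 7 days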;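 on viability, T/C: 100% = DMSO vehicle control wells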
Conditions: for IC50: curve of first compound; for viability, T/C: stronger effect = lower value
In short: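 Concentration series start at each agent's clinical Cmax, or at 10 microM when none is established, and drop in half-log steps; agents are applied alone or together to complex spheroids built with HUVEC and hMSC.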

[1] = second compound 0.1 µM, first compound 0.00949 µM
[2] = second compound 0.1 µM, first compound 0.03 µM
[3] = second compound 0.1 µM, first compound 0.0949 µM
[4] = second compound 0.1 µM, first compound 0.3 µM
[5] = second compound 0.1 µM, first compound 0.949 µM
[6] = second compound 0.1 µM, first compound 3 µM
[7] = second compound 0.316 µM, first compound 0.00949 µM
[8] = second compound 0.316 µM, first compound 0.03 µM
[9] = second compound 0.316 µM, first compound 0.0949 µM
[10] = second compound 0.316 µM, first compound 0.3 µM
[11] = second compound 0.316 µM, first compound 0.949 µM
[12] = second compound 0.316 µM, first compound 3 µM
[13] = second compound 1 µM, first compound 0.00949 µM
[14] = second compound 1 µM, first compound 0.03 µM
[15] = second compound 1 µM, first compound 0.0949 µM
[16] = second compound 1 µM, first compound 0.3 µM
[17] = second compound 1 µM, first compound 0.949 µM
[18] = second compound 1 µM, first compound 3 µM

`CCN1C(C(=O)NC23CCC(C(=O)O)(CC2)CC3)C(c2cccc(Cl)c2F)C2(C(=O)Nc3cc(Cl)ccc32)C12CCCCC2` (stereo not given) + CNC(C)C(=O)NC1CN(S(=O)(=O)c2cccc(S(=O)(=O)N3CCC4CCC(C(=O)NC(c5ccccc5)c5ccccc5)N4C(=O)C(NC(=O)C(C)NC)C3)c2)CCC2CCC(C(=O)NC(c3ccccc3)c3ccccc3)N2C1=O gave an IC50 (second compound 0.01 µM) of less than 9.49 nM, an IC50 (second compound 0.0316 µM) of less than 9.49 nM and an IC50 (second compound 0.1 µM) of less than 9.49 nM. For the same compound, the IC50 (second compound 0.316 µM) was less than 9.49 nM, the IC50 (second compound 1 µM) was less than 9.49 nM and the viability, T/C (second compound 0.01 µM, first compound 0.00949 µM) was 33%. The viability, T/C (second compound 0.01 µM, first compound 0.03 µM) was 26.5%, the viability, T/C (second compound 0.01 µM, first compound 0.0949 µM) was 19.7% and the viability, T/C (second compound 0.01 µM, first compound 0.3 µM) was 11.7%. It also gave a viability, T/C (second compound 0.01 µM, first compound 0.949 µM) of 10.8%, a viability, T/C (second compound 0.01 µM, first compound 3 µM) of 7.5% and a viability, T/C (second compound 0.0316 µM, first compound 0.00949 µM) of 28.5%. For the same compound, the viability, T/C (second compound 0.0316 µM, first compound 0.03 µM) was 21.7%, the viability, T/C (second compound 0.0316 µM, first compound 0.0949 µM) was 16.3% and the viability, T/C (second compound 0.0316 µM, first compound 0.3 µM) was 11.6%. For the same compound, the viability, T/C (second compound 0.0316 µM, first compound 0.949 µM) was 10.3%, the viability, T/C (second compound 0.0316 µM, first compound 3 µM) was 7.98% and the viability, T/C [1] was 20.6%. For the same compound, the viability, T/C [2] was 18.6%, the viability, T/C [3] was 14.6% and the viability, T/C [4] was 13.5%. For the same compound, the viability, T/C [5] was 10.5%, the viability, T/C [6] was 8.21% and the viability, T/C [7] was 21%. The viability, T/C [8] was 18.1%, the viability, T/C [9] was 17.7% and the viability, T/C [10] was 14.1%. For the same compound, the viability, T/C [11] was 9.49%, the viability, T/C [12] was 10.4% and the viability, T/C [13] was 19.9%. The viability, T/C [14] was 17.2%, the viability, T/C [15] was 15.9% and the viability, T/C [16] was 13.7%. It also gave a viability, T/C [17] of 11.8% and a viability, T/C [18] of 9.28%.

Compound `COc1c(OCCCN2CCOCC2)ccc2c3n(c(=NC(=O)c4cnc(N)nc4)nc12)CCN3` + CNC(C)C(=O)NC1CN(S(=O)(=O)c2cccc(S(=O)(=O)N3CCC4CCC(C(=O)NC(c5ccccc5)c5ccccc5)N4C(=O)C(NC(=O)C(C)NC)C3)c2)CCC2CCC(C(=O)NC(c3ccccc3)c3ccccc3)N2C1=O has an IC50 (second compound 0.01 µM) of 4.1 nM, an IC50 (second compound 0.0316 µM) of less than 3.16 nM and an IC50 (second compound 0.1 µM) of less than 3.16 nM. For the same compound, the IC50 (second compound 0.316 µM) was less than 3.16 nM, the IC50 (second compound 1 µM) was less than 3.16 nM and the viability, T/C (second compound 0.01 µM, first compound 0.00316 µM) was 56.5%. The viability, T/C (second compound 0.01 µM, first compound 0.01 µM) was 28.1%, the viability, T/C (second compound 0.01 µM, first compound 0.0316 µM) was 13.5% and the viability, T/C (second compound 0.01 µM, first compound 0.1 µM) was 5.19%. The viability, T/C (second compound 0.01 µM, first compound 0.316 µM) was 1.61%, the viability, T/C (second compound 0.01 µM, first compound 1 µM) was 0.4% and the viability, T/C (second compound 0.0316 µM, first compound 0.00316 µM) was 38.4%. It also gave a viability, T/C (second compound 0.0316 µM, first compound 0.01 µM) of 26.1%, a viability, T/C (second compound 0.0316 µM, first compound 0.0316 µM) of 8.33% and a viability, T/C (second compound 0.0316 µM, first compound 0.1 µM) of 2.99%. The viability, T/C (second compound 0.0316 µM, first compound 0.316 µM) was 2.16%, the viability, T/C (second compound 0.0316 µM, first compound 1 µM) was 0.41% and the viability, T/C (second compound 0.1 µM, first compound 0.00316 µM) was 37.3%. The viability, T/C (second compound 0.1 µM, first compound 0.01 µM) was 27.9%, the viability, T/C (second compound 0.1 µM, first compound 0.0316 µM) was 9.81% and the viability, T/C (second compound 0.1 µM, first compound 0.1 µM) was 2.85%. It also gave a viability, T/C (second compound 0.1 µM, first compound 0.316 µM) of 1.49%, a viability, T/C (second compound 0.1 µM, first compound 1 µM) of 0.35% and a viability, T/C (second compound 0.316 µM, first compound 0.00316 µM) of 31.4%. For the same compound, the viability, T/C (second compound 0.316 µM, first compound 0.01 µM) was 22.4%, the viability, T/C (second compound 0.316 µM, first compound 0.0316 µM) was 9.6% and the viability, T/C (second compound 0.316 µM, first compound 0.1 µM) was 2.64%. For the same compound, the viability, T/C (second compound 0.316 µM, first compound 0.316 µM) was 1.51%, the viability, T/C (second compound 0.316 µM, first compound 1 µM) was 0.29% and the viability, T/C (second compound 1 µM, first compound 0.00316 µM) was 27.5%. The viability, T/C (second compound 1 µM, first compound 0.01 µM) was 20.3%, the viability, T/C (second compound 1 µM, first compound 0.0316 µM) was 6.75% and the viability, T/C (second compound 1 µM, first compound 0.1 µM) was 3.45%. For the same compound, the viability, T/C (second compound 1 µM, first compound 0.316 µM) was 1.17% and the viability, T/C (second compound 1 µM, first compound 1 µM) was 0.36%.

With `Cc1nc(N2CCC3(CC2)COC(C)C3N)c(CO)nc1Sc1ccnc(N)c1Cl` (stereo not given) + Cc1c(S(C)(=O)=O)c(-c2cc(F)cc(N3CCN(c4ccc(NS(=O)(=O)c5ccc(NC(CCN6CCC(C(=O)OCCCP(=O)(O)O)CC6)CSc6ccccc6)c(S(=O)(=O)C(F)(F)F)c5)cc4)CC3)c2)c(-c2ccc(Cl)cc2)n1C(C)C the IC50 (second compound 0.1 µM) was less than 9.49 nM, the IC50 (second compound 0.316 µM) was less than 9.49 nM and the IC50 (second compound 1 µM) was less than 9.49 nM. It also gave an IC50 (second compound 3.16 µM) of less than 9.49 nM, an IC50 (second compound 10 µM) of less than 9.49 nM and a viability, T/C [1] of 11.9%. The viability, T/C [2] was 11.6%, the viability, T/C [3] was 11.1% and the viability, T/C [4] was 7.3%. It also gave a viability, T/C [5] of 7.66%, a viability, T/C [6] of 5.44% and a viability, T/C [7] of 8.93%. It also gave a viability, T/C [8] of 9.76%, a viability, T/C [9] of 7.87% and a viability, T/C [10] of 5.11%. The viability, T/C [11] was 5.06%, the viability, T/C [12] was 4.22% and the viability, T/C [13] was 7.05%. It also gave a viability, T/C [14] of 7.01%, a viability, T/C [15] of 6.81% and a viability, T/C [16] of 4.44%. For the same compound, the viability, T/C [17] was 4.09%, the viability, T/C [18] was 2.1% and the viability, T/C (second compound 3.16 µM, first compound 0.00949 µM) was 4.29%. The viability, T/C (second compound 3.16 µM, first compound 0.03 µM) was 6.13%, the viability, T/C (second compound 3.16 µM, first compound 0.0949 µM) was 4.92% and the viability, T/C (second compound 3.16 µM, first compound 0.3 µM) was 3.71%. The viability, T/C (second compound 3.16 µM, first compound 0.949 µM) was 2.47%, the viability, T/C (second compound 3.16 µM, first compound 3 µM) was 2.4% and the viability, T/C (second compound 10 µM, first compound 0.00949 µM) was 4.54%. For the same compound, the viability, T/C (second compound 10 µM, first compound 0.03 µM) was 4.83%, the viability, T/C (second compound 10 µM, first compound 0.0949 µM) was 3.89% and the viability, T/C (second compound 10 µM, first compound 0.3 µM) was 3.77%. The viability, T/C (second compound 10 µM, first compound 0.949 µM) was 2.82% and the viability, T/C (second compound 10 µM, first compound 3 µM) was 1.96%.
